This passage reports Kd results from PMC10274570, “Preclinical characterization of WB737, a potent and selective STAT3 inhibitor, in natural killer/T‐cell lymphoma” (MedComm, 2023).

Experiment [1] concerns the target T1, signal transducer and activator of transcription 3 (STAT3) (Homo sapiens, UniProt P40763).
T1 construct: His-STAT3 127-722
The experiment in a line: microscale thermophoresis with labeled purified His-STAT3 […]-722 (reference inhibitor). Format: binding. Background: In MST a laser heats a spot of the sample, and binding alters the fluorescence response.

In experiment [2] the target is T1, signal transducer and activator of transcription 3 (STAT3). In words: microscale thermophoresis with labeled purified His-STAT3 […]-722. In kind it is binding.

T1 sequence (P40763 127-722): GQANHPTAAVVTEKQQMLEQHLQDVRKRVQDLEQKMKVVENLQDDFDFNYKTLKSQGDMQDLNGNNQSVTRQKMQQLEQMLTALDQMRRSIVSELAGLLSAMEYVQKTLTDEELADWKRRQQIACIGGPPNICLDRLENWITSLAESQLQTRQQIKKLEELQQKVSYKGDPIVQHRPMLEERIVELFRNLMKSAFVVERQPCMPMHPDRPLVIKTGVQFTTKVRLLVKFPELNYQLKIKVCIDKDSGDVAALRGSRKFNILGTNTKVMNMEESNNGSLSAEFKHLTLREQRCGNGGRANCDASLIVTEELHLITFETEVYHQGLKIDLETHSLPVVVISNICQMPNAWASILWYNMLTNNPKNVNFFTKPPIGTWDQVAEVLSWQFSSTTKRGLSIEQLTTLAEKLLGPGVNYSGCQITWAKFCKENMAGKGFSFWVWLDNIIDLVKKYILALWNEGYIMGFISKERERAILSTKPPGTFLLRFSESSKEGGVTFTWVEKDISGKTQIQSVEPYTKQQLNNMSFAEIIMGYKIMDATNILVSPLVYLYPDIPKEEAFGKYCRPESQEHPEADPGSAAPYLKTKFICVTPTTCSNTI

In the case of `O=[N+]([O-])c1ccc2c(c1)S(=O)(=O)C=C2` [Stattic], the affinity in experiment [1], expressed as Kd, was 6.51 ± 0.82 µM.
Consider WB737, for which binding in experiment [2] was put at a Kd of 0.00134 ± 0.00019 µM.

As usually defined, the Kd is the constant that tells how readily two partners part at equilibrium. A high value points to lower affinity.
